According to ChEMBL document CHEMBL1201862, “PubChem BioAssay data set” (2004):
The source made the active and inactive calls. Cut-off read from the data, not from the text of the source, for most assays here: actives have a measured EC50 and inactives only a lower limit.

What was measured:
Streptococcus = test: GAS UMAA2166 growth inhibition – luminescence, BacTiterGlo, counter-screen for streptokinase expression inhibitor project, dose response (AID 1915); type: functional, organism-based;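 note: potency for reduction of bacterial viability or growth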
Streptokinase A = molecular target: T1, Streptokinase A (Streptococcus pyogenes serotype M1, UniProt P10520); test: viability-normalized secreted streptokinase activity reduction – plasminogen activation absorbance, OD405, dose response (AID 1914); type: functional, Streptococcus pyogenes M1 GAS;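 note: secreted streptokinase activity via plasminogen activation per viability signal from cell pellet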
T1 sequence (P10520 whole entry): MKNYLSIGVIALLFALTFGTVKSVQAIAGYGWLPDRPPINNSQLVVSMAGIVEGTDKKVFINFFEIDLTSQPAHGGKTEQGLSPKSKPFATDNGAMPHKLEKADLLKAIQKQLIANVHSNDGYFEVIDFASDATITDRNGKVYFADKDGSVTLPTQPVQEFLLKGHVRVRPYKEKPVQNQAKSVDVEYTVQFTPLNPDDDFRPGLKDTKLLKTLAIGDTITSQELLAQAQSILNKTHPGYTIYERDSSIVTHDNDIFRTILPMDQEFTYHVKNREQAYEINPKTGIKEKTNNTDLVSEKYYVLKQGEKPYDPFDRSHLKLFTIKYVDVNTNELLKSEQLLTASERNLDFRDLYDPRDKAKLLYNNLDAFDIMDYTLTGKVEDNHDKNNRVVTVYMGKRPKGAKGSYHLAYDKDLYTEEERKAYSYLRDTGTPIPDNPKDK

[1] = test system: Streptococcus sp. 'group A'; test: Streptococcus pyogenes SK(-)GAS viability under kanamycin – luminescence, BacTiterGlo, confirmation, counter-screen for streptokinase expression inhibitor project, dose response (AID 1900); type: functional, organism-based
[2] = molecular target: T2, Corticotropin-releasing factor receptor 2/Corticotropin-releasing factor-binding protein (Homo sapiens, UniProt P24387+Q13324); test: activators of CRF receptor 2 with binding protein – uHTS hits, confirmation (AID 602473); type: functional; conditions: read-out: EC50_Mean
T2 sequence (Q13324 whole entry): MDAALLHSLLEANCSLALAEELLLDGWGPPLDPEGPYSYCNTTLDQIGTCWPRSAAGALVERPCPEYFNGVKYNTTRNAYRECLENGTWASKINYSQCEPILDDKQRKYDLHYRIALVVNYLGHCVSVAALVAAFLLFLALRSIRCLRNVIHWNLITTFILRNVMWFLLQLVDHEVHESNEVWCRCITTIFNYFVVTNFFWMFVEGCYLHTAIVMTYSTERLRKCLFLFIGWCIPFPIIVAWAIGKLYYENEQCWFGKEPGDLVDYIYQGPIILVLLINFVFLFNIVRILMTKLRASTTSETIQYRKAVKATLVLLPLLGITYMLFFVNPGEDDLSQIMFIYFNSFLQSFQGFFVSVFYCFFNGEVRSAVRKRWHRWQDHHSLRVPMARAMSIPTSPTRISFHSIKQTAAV
T2 sequence (P24387 whole entry): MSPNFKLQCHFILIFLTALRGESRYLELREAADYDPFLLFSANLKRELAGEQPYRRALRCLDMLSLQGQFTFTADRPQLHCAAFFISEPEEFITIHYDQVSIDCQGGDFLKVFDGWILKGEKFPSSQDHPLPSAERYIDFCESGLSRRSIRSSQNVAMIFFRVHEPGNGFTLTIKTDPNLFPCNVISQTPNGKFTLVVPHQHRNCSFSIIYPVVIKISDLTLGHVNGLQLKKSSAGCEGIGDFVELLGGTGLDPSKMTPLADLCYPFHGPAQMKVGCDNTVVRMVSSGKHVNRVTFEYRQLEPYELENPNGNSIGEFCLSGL

[3] = Trypanosoma cruzi growth suppression in host cells – NIH3T3 host cells, beta-gal luminescence, confirmation (AID 2044); type: functional, cell-based;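 note: intracellular parasites grown in NIH/3T3 mouse fibroblasts as host cells; luminescent beta-galactosidase reporter signal from transgenic T. cruzi replicating inside host cells; inhibitors lower the luminescence signal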
[4] = NIH3T3 cell viability loss – ATP luminescence, mouse fibroblasts, counter-screen, dose response (AID 2010); type: functional, cell-based;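 note: cells exposed to compound for about 90 hours before reading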
[5] = molecular target: T3, Replicative DNA helicase DnaB (Mycobacterium tuberculosis, UniProt P9WMR3); test: DnaB intein splicing inhibitors, dose response, biochemical, cell-free fluorescence (AID 449749); type: functional
T3 sequence (P9WMR3 whole entry): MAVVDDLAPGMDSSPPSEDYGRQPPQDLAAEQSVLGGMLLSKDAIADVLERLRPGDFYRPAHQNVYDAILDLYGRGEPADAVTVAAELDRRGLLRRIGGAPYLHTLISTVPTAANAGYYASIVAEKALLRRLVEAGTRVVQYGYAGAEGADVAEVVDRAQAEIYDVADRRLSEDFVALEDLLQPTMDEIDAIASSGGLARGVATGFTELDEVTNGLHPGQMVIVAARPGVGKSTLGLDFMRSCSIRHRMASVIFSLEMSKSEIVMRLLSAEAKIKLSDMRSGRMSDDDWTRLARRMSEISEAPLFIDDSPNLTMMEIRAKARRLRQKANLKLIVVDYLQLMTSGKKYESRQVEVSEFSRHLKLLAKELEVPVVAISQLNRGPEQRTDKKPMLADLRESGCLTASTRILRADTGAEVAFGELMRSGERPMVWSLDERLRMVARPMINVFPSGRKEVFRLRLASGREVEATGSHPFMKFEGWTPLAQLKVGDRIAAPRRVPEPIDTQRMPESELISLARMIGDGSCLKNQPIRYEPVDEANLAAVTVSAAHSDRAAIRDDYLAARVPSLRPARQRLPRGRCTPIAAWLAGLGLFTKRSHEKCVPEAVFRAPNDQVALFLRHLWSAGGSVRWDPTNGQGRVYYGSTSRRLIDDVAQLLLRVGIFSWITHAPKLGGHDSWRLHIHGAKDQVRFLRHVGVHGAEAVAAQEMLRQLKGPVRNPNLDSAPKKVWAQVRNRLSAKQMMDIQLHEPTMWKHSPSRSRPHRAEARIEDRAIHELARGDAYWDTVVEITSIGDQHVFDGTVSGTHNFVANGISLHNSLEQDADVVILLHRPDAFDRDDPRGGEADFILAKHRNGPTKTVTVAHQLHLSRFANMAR

Protein RecA = molecular target: T4, Protein RecA (Mycobacterium tuberculosis, UniProt P9WHJ3); test: Fluorescence Cell-Free Homogeneous Dose Retest to Identify Inhibitors of RecA-Intein Splicing Activity. [Related pubchem assays (depositor defined):AID2097, AID2223, AID489010, AID492950]; type: functional
T4 sequence (P9WHJ3 whole entry): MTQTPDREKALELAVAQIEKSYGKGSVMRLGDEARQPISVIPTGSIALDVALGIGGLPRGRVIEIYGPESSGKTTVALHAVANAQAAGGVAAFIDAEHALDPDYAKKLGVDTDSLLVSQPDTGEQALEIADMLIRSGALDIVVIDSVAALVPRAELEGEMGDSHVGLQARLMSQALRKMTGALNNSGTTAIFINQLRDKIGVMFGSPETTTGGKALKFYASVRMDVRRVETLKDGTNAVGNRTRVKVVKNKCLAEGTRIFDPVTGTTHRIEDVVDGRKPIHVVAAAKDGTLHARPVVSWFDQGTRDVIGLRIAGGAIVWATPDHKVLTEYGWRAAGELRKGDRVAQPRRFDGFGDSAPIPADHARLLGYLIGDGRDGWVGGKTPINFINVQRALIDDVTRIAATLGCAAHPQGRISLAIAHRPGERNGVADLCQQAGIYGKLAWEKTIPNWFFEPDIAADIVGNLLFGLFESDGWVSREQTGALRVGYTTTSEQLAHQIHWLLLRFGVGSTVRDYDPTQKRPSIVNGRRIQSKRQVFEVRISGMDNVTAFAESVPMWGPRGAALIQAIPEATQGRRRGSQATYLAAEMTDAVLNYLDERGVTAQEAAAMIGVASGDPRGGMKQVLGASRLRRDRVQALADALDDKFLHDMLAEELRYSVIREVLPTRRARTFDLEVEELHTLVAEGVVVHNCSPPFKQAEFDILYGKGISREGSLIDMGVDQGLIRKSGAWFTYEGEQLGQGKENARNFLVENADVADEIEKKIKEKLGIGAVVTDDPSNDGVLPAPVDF

| SMILES | EC50 (Streptococcus) | EC50 (Streptokinase A) | EC50 [1] | EC50 [2] | also measured |
| --- | --- | --- | --- | --- | --- |
| Cc1ccc(C(=O)Nc2nnc(S(=O)(=O)N3CCN(c4ccc(F)cc4)CC3)s2)cc1 | 109 µM (active) | > 150 µM (not active) |  |  |  |
| O=C(COc1cccc(Cl)c1)Nc1ccccc1N1CCCCC1 | > 150 µM (not active) | 11.1 µM (active) | 21.1 µM (active) |  |  |
| COc1ccc(C(=O)Cn2cnc3ccccc3c2=O)c(OC)c1 |  |  |  | > 53 µM (inactive) |  |
| COc1ccc(CN(C2CCCCC2C)S(=O)(=O)c2ccc(S(=O)(=O)N(C)C)cc2)cc1OC (centres undefined) |  |  |  | 5.42 µM (active) |  |
| Cc1nc2c(C)cccn2c(=O)c1NC(=O)c1ccc2c(c1)OCO2 | > 150 µM (not active) | > 150 µM (not active) | > 150 µM (not active) |  |  |
| COc1ccc(NC(=N)SCc2ccccn2)cc1 |  |  |  | 15.6 µM (active) |  |
| Cc1ccsc1C(=O)N(c1nc2ccccc2s1)c1c(C)cccc1C | > 150 µM (not active) | 7.09 µM (inconclusive) | 16.7 µM (active) |  |  |
| Cc1ccc(S(=O)(=O)N2CCN(c3ncnc4scc(-c5ccccc5)c34)CC2)cc1 |  |  |  | 2.65 µM (active) |  |
| COc1ccc(CNS(=O)(=O)NCc2ccccc2)cc1OC |  |  |  | > 53 µM (inactive) |  |
| CC(C)(C)c1ccccc1OCCCCCn1ccnc1 | > 150 µM (not active) | > 150 µM (not active) | 19.1 µM (active) |  | EC50 [3]: 1.32 µM (active); EC50 [4]: > 60 µM (not active) |
| O=C(c1ccc(S(=O)(=O)Nc2ccccc2)cc1)N1CCCC(C(F)(F)F)C1 (centres undefined) |  |  |  | 10.5 µM (active) |  |
| CCN=C(S)N(CCc1ccc(S(N)(=O)=O)cc1)C1CC(=O)N(c2ccccc2)C1=O (centres undefined) |  |  |  | 18.5 µM (active) |  |
| CC1(c2ccc(OC(F)F)cc2)NC(=O)N(CC(=O)Nc2ccc3c(c2)OCO3)C1=O (centres undefined) |  |  |  | 5.24 µM (active) |  |
| FC(F)(F)c1cccc(Nc2nc(N3CCCC3)nc(N3CCCC3)n2)c1 | 9.85 µM (active) | 17.5 µM (inconclusive) | 4.06 µM (active) |  |  |
| O=C(Oc1ccc2ccccc2c1)c1ccco1 |  |  |  |  | AC50 [5]: 18.3 µM (active); EC50 (Protein RecA): 13.9 µM (active) |
| CCOc1ccc2c(c1)c1nnc(SCC(=O)N3CCC(C)CC3)nc1n2C | > 150 µM (not active) | > 150 µM (not active) | 24.2 µM (active) |  |  |
| Cc1ccc(N(Cc2cc(=O)[nH]c3ccccc23)C(=O)CCl)cc1 |  |  |  |  | EC50 (Protein RecA): > 380 µM (inconclusive) |

| SMILES | EC50 (Streptococcus) | EC50 (Streptokinase A) | EC50 [1] | EC50 [2] | also measured |
| --- | --- | --- | --- | --- | --- |
| Cc1ccc2c(c1)C(=O)CC1(CCC(C(C)(C)C)CC1)O2 (centres undefined) | 14.2 µM (active) | 12.6 µM (active) | 9.31 µM (active) |  |  |
| O=C(NC(=S)Nc1ccc(Cl)c(C(=O)O)c1)c1cccc(COc2ccccc2)c1 | > 150 µM (not active) | > 150 µM (not active) | 13 µM (active) |  |  |
| CCCCCCCCCCC(=O)NNC(=O)c1c(O)c2ccccc2n(CC)c1=O | 4.38 µM (active) | > 150 µM (not active) | 0.337 µM (active) |  |  |
| CCOC(=O)c1ccc(CNC(=O)Cn2nnc(-c3ccccc3)n2)o1 |  |  |  | > 53 µM (inactive) |  |
| O=C(CSC(=S)N1CCCCC1)Nc1nc(-c2ccccc2)c(-c2ccccc2)o1 | > 150 µM (not active) | > 150 µM (not active) | 1.51 µM (active) |  |  |
| CCCn1c(=O)c(C(=O)NNC(=O)c2ccccc2Cl)c(O)c2ccccc21 |  |  |  | 5.81 µM (active) |  |
| CCO/C=C1/C(=O)N(C)C(=O)c2cc(OC)ccc21 |  |  |  |  | EC50 (Protein RecA): > 380 µM (inactive) |
| CCOC(=O)c1cnc(-n2nc(C)cc2C)nc1N(CC)CC | > 150 µM (not active) | > 150 µM (not active) | 25.3 µM (active) |  |  |
| COc1ccc(-c2coc3c(C)c4oc(=O)c(CCC(=O)O)c(C)c4cc23)cc1 | 15.4 µM (active) | > 150 µM (not active) | 3.74 µM (active) |  |  |
| CCCn1c(NC(=O)C23CC4CC(CC(O)(C4)C2)C3)nc2ccccc21 | > 150 µM (not active) | > 150 µM (not active) |  |  |  |
| Cc1nn(C)c(C(=O)N/N=C/c2cccc(Oc3ccccc3)c2)c1Br |  |  |  | > 53 µM (inactive) |  |
| CC(=O)Nc1ccc(/C=N/N2C(=O)NC(C)(c3ccc(OC(F)F)cc3)C2=O)cc1 (centres undefined) |  |  |  | 1.37 µM (active) |  |
| CC(=O)Oc1ccc(/C=N/NS(=O)(=O)c2ccccc2)cc1 | > 150 µM (not active) | > 150 µM (not active) | > 150 µM (not active) |  |  |
| Cc1cc(Br)c(OCc2ccc(C(=O)N/N=C3\CC4CC=CC34)cc2)c(Br)c1 (centres undefined) | 44.5 µM (active) | > 150 µM (not active) | 4.08 µM (active) |  |  |
| CC(=N)/C(C#N)=C(/O)CSc1nc2cc(Cl)ccc2c(=O)n1Cc1ccco1 | 16.2 µM (active) | > 150 µM (not active) | 11.8 µM (active) |  | EC50 [3]: 3.43 µM (active); EC50 [4]: > 60 µM (inconclusive) |
| C/C(=N\NC(=O)c1ccc(Cl)c(Cl)c1)c1ccc(Br)s1 | 14.7 µM (active) | > 150 µM (not active) | 2.12 µM (active) |  | EC50 [3]: 0.597 µM (active); EC50 [4]: 8.11 µM (active) |
